Measurements taken from patent US8445467B2, “Reducing risk of type 2 diabetes (T2D)” (Joslin Diabetes Center, Inc., priority 2006, dated 2013).
Where “and” joins values, the source holds several entries; their conditions need not be identical. Identical values can stand only once. Entries after “also recorded” stand apart in the source; their conditions may differ.

Tests used:
[1] = test system: overweight non-diabetic adults; assay: Glycemia (fasting glucose, OGTT, glycated albumin) in double-masked placebo controlled trial; type: in vivo, human
Source text: (§1) The ability of high doses of systemic salsalate to reduce systemic inflammation and improve metabolic parameters was investigated in a double-masked placebo controlled trial of 20 overweight non-diabetic adults (age: 24 yrs±1, gender 17F/3M, BMI 38 kg/m^2±2), evaluated at baseline and after one month of dally administration of oral salsalate 4 g or placebo.
Subjects were under 30 years old, and obese as defined by a body mass Index (BMI) of ≧ 30 kg/m^2 Participants were excluded for recent blood donation, change in weight of more than 5% in the preceding six months or use of medication known to alter weight, acute febrile illness, biochemical evidence of renal or hepatic dysfunction, aspirin allergy, history of gastritis or gastrointestinal bleeding, current medications known to altar glucose metabolism, or diabetes mellitus based on screening evaluation. Female participants were excluded for pregnancy, lactation, or lack of current use of a hormonal or barrier contraceptive method.
(§2) Participants were instructed to consume a standard high-carbohydrate diet (250-300 grams/day) and abstain from strenuous exercise for three days prior to undergoing, baseline and final evaluations. Subjects were additionally instructed not to alter dietary or exercise habits daring the study Blood pressure was measured twice with the patient supine for 10 minutes. Fasting lipids and cytokines were measured, and oral glucose tolerance tests (OGTT) were performed with glucose, insulin, C-peptide and free fatty acid levels measured prior to and 30, 60, 90 and 120 minutes after 75-gram glucose load. All subjects were non-diabetic based on current American Diabetes Association guidelines (Diagnosis and Classification of Diabetes Mellitus. Diabetes Care 28:S37-S42 (2005)). AUC data were calculated by triangulation. Insulin resistance was determined using homeostasis model assessment (HOMA-IR) for insulin and C-peptide as described using the modified formula: HOMA-IRC-peptide=(fasting C-peptide*fasting glucose)/22.5 See, e.g., Matthews et al, Diabetologia 28:41.2-419 (1985); Wallace et al., Diabetes Care 27; 1487-4495 (2004).
(§3) Compliance was evaluated with blood salicylate levels.
(§4) Glucose was measured by glucose oxidation, cholesterol and HDL by cholesterol esterase assay, triglycerides via hydrolysis to glycerol and FFA (Beckman Synchron CX3delta and CX9, Beckman Coulter, Brea, Calif.), and glycohemoglobin by HPLC (TOSHO 2.2™, Tosoh Bioscience, San Francisco, Calif.). Immunoassays were performed in duplicate on serum specimens by commercial assay including RIA for insulin and C-peptide (Diagnostic Systems Laboratories, Webster, Tex.), and adiponectin (Linco research, St. Charles, Mo., USA); ELISA for free fatty acids (WAKO chemicals, Richmond, Va., USA), and IL-6 and VCAM-1 (R& D Systems, Minneapolis, Minn., USA). CRP was analysed by immunoturbidometry (WAKO chemicals, Richmond, Va., USA), Salicylate levels were assessed commercially using a colorimetric assay (Quest Laboratories, Cambridge, Mass., USA). Glycated albumin was evaluated with the use of a Hitachi 911 lipid and protein analyzer and kits from AsahiKasei (Tokyo, JP). Glycated albumin was calculated by determining (1) the colorimetric measurement of total, albumin; (2) partial enzymatic digestion of albumin at glycated sites; (3) re-assessment of albumin; (4) % glycated albumin=1-3.
The primary endpoint was change from, baseline in glycemic measures using between group comparisons. Secondary outcomes were also assessed as change from baseline within group. Data are presented as mean±standard error unless otherwise noted. Unpaired (salsalate vs. placebo) and paired (pre vs. post) Student t-tests were performed. Treatment effects were determined by calculating differences between baseline sad end of treatment values divided by the baseline value to determine a percent change for each participant. […]

[2] = test system: overweight non-diabetic adults; assay: Insulin, C-peptide and HOMA-IR in double-masked placebo controlled trial; type: in vivo, human
Source text: as §1, §2, §3, §4
(§5) The primary endpoint was change from, baseline in glycemic measures using between group comparisons. Secondary outcomes were also assessed as change from baseline within group. Data are presented as mean±standard error unless otherwise noted. Unpaired (salsalate vs. placebo) and paired (pre vs. post) Student t-tests were performed. Treatment effects were determined by calculating differences between baseline sad end of treatment values divided by the baseline value to determine a percent change for each participant. Repeated measures of ANOVA and area under curve analyses were performed to compare response to oral glucose load before and after treatment. Only subjects completing the trial were included in data analysis. Results were considered significant with two-tailed p-values <0.05.

[3] = test system: overweight non-diabetic adults; assay: Cytokines, adipokines and inflammatory markers pre- and post-one month of therapy; type: in vivo, human
Protocol: as §1, §4, §5
To evaluate the proposed anti-inflammatory mechanism of action for improvement in glycemia, cytokines and adipokines were assessed pre- and post-one month of therapy in the same population described in Example 1.

IKKβ/NF-κB = conditions: cited from earlier work
cyclooxygenase enzymes = conditions: cited from earlier work
[4] = test system: overweight non-diabetic adults; assay: Safety and tolerability in the trial
[5] = following one month of salsalate therapy
[6] = over the one-month period, p>0.1

O=C(Oc1ccccc1C(=O)O)c1ccccc1O [salsalate, 2-hydroxybenzoE acid, 2-carboxyphenyl ester]
fasting glucose compared to placebo (FIG. 1A) [1]: reduced
glycated albumin compared to placebo (FIG. 1A) [1]: reduced
post oral glucose challenge glucose area under the curve compared to placebo (FIG. 1A) [1]: reduced
fasting plasma glucose level after treatment ([1]; after one month of salsalate, baseline 5.0±0.2, p<0.03): 4.6 ± 0.1 mmol/L
glycated albumin after treatment ([1]; after one month of salsalate, baseline 12.4±0.4%, p<0.003): 10.3±0.3%
reduction in glucose area under the curve during oral glucose tolerance testing ([1]; oral salsalate 4 g daily, one month, 75 g oral glucose, placebo increased by 6±3%, p=0.003): 14±5%
reduction in fasting glucose, change from baseline ([1]; oral salsalate 4 g daily, one month, mean±SE, placebo increase of 5±2%, p<0.002): 8±4%
reduction in glycated albumin, change from baseline ([1]; oral salsalate 4 g daily, one month, placebo 0.6±0.9%, p<0.002): 17±4%
glycemia response to glucose load ([1]; within group, one month of salsalate, repeated measure analysis p<0.01): improvements in glycemia; also recorded: improved
fasting C-peptide levels after treatment ([2]; after one month of salsalate, baseline 1.6±0.2, p=0.02): 1.1 ± 0.2 nmol/L
reduction in C-peptide AUC post glucose challenge ([2]; one month of salsalate, placebo increase of 4±7%, p=0.02): 23±4%
reduction in fasting C-peptide, change from baseline ([2]; one month of salsalate, placebo increase of 5±6%, p<0.01): 30±7%
HOMA IRc peptide lowered by ([2]; one month of salsalate, placebo increased 9±5%, p=0.003): 35±8%
HOMA-IR using insulin, post treatment ([2]; post one month of salsalate, pre 4.6±0.9, p=0.9, not significantly changed): 4.2±0.6
fasting insulin values ([2]; pre vs post one month of salsalate): unchanged
insulin levels following glucose challenge ([2]; pre- and post-salsalate, 75 g oral glucose): remained unchanged
insulin sensitivity calculated by HOMA IRc-peptide (FIG. 2C) ([2]; salsalate compared to placebo): improvement
C peptide response to Oral Glucose Tolerance Test calculated by AUC (FIG. 2C) ([2]; salsalate vs placebo): significant between group difference
adiponectin compared to placebo (FIG. 3A) [3]: increased significantly
fasting non-esterified fatty acids (FFA) levels after treatment ([3]; after one month of salsalate, baseline 0.46±0.08, p=0.05): 0.25±0.05 mEq/L
adiponectin after treatment ([3]; after one month of salsalate, baseline 10.6±1.7, p=0.01): 16.2 ± 2.7 mg/L
CRT concentrations after treatment ([3]; after one month of salsalate, baseline 48.2±10.5, p=0.05): 30.2 ± 7.4 nmol/L
II-6 [3, 5]: did not change significantly
soluble VCAM-1 [3, 5]: did not change significantly
adiponectin increase, change from baseline ([3]; one month of salsalate, placebo decreased 1±5%, p=0.003): 56±17%
C-reactive protein (CRP) following treatment (FIG. 3B) ([3]; p<0.05): lower
Free Fatty Acids (FFA) following treatment (FIG. 3B) ([3]; p<0.05): lower
inhibition of IKKβ/NF-κB compared to aspirin (IKKβ/NF-κB): equipotent inhibitor
inhibition of cyclooxygenase enzymes compared to aspirin (cyclooxygenase enzymes): much weaker inhibitor
reduced dose tolerated without symptoms (individual participants) ([4]; actively treated participants after dose reduction): 3.5 grams per day and 3.0 grams per day
participants with transient mild transaminitis at the final visit ([4]; actively treated, resolved spontaneously): two
changes in anion gap ([4]; during the trial): no noted changes
changes in laboratory analysis of electrolytes ([4]; during the trial): no noted changes
changes in laboratory analysis of renal function ([4]; during the trial): no noted changes
ALT/AST elevation in individual actively treated participants ([4]; final visit, resolved spontaneously): similarly mild elevation in both ALT and AST; also recorded: less than twice the upper range of normal
participants requiring dose reduction due to complaints of tinnitus, headache or dizziness ([4]; initiated on 4.0 grams/day orally in two equal doses, on study medication): Two
symptomatic hypoglycemia ([4]; one month, 4 g daily): No symptomatic hypoglycemia
change in mean alanine aminotransferase (ALT) [4, 6]: no statistically significant change
change in mean aspartate aminotransferase (AST) [4, 6]: no statistically significant change
respiratory distress ([4]; participants with rash on active therapy): No respiratory distress
participants withdrawn due to rash ([4]; received active therapy): three
